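Dose response: 5 concentrations. Exposure: 48 h. Format: 96-well plates. Endpoint: linear interpolation; highest concentration if not reached. Here, GI50 denotes the concentration required for 50% inhibition of growth.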 The source made the active and inactive calls. Rule as the data show it: active = GI50 up to about 1.1 µM and inactive = higher.
Columns and labels:
Assay in all cases: growth of human tumour cells (NCI), 48 h
786-0 = tested on: 786-0
A498 = tested on: A498
A549 = tested on: A549
ACHN = tested on: ACHN
BT-549 = tested on: BT-549
CAKI-1 = tested on: CAKI-1
CCRF-CEM = tested on: CCRF-CEM
COLO 205 = tested on: COLO 205
DU-145 = tested on: DU-145
EKVX = tested on: EKVX
HCC 2998 = tested on: HCC 2998
HCT-116 = tested on: HCT-116
HCT-15 = tested on: HCT-15
HL-60 = tested on: HL-60
HOP-62 = tested on: HOP-62
HOP-92 = tested on: HOP-92
HT-29 = tested on: HT-29
Hs-578T = tested on: Hs-578T
IGROV-1 = tested on: IGROV-1
K562 = tested on: K562
KM12 = tested on: KM12
LOX IMVI = tested on: LOX IMVI
M14 = tested on: M14
MCF7 = tested on: MCF7
MDA-MB-231 = tested on: MDA-MB-231
MDA-MB-435 = tested on: MDA-MB-435
MDA-N = tested on: MDA-N
MOLT-4 = tested on: MOLT-4
Malme-3M = tested on: Malme-3M
NCI-H23 = tested on: NCI-H23
NCI-H460 = tested on: NCI-H460
NCI-H522 = tested on: NCI-H522
NCI/ADR-RES = tested on: NCI/ADR-RES
OVCAR-3 = tested on: OVCAR-3
OVCAR-4 = tested on: OVCAR-4
OVCAR-5 = tested on: OVCAR-5
OVCAR-8 = tested on: OVCAR-8
PC-3 = tested on: PC-3
RPMI-8226 = tested on: RPMI-8226
RXF 393 = tested on: RXF 393
SF-268 = tested on: SF-268
SF-295 = tested on: SF-295
SK-MEL-28 = tested on: SK-MEL-28
SK-MEL-2 = tested on: SK-MEL-2
SK-MEL-5 = tested on: SK-MEL-5
SK-OV-3 = tested on: SK-OV-3
SN12C = tested on: SN12C
SNB-19 = tested on: SNB-19
SNB-75 = tested on: SNB-75
SR = tested on: SR
SW-620 = tested on: SW-620
T47D = tested on: T47D
TK-10 = tested on: TK-10
U-251 = tested on: U-251
UACC-257 = tested on: UACC-257
UACC-62 = tested on: UACC-62
UO-31 = tested on: UO-31
SF-539 = tested on: SF-539

How did the GI50 (786-0) turn out when COc1ccc2c(=O)cc(-c3ccncc3)oc2c1OC was run?
Its GI50 is 27.9 µM (inactive).

What about the GI50 (A498) of the same compound?
Its GI50 is 14.7 µM (inactive).

What about the GI50 (A549) of the same compound?
Its GI50 is 33.1 µM (inactive).

What about the GI50 (ACHN) of the same compound?
The GI50 was 25.7 µM (inactive).

What about the GI50 (BT-549) of the same compound?
Its GI50 is 26 µM (inactive).

And the GI50 (CAKI-1)?
The GI50 was 36.1 µM (inactive).

And the GI50 (CCRF-CEM)?
Its GI50 is 29.1 µM (inactive).

What about the GI50 (COLO 205) of the same compound?
The GI50 was 15 µM (inactive).

And the GI50 (DU-145)?
Its GI50 is 24.7 µM (inactive).

What about the GI50 (EKVX) of the same compound?
Its GI50 is 28.2 µM (inactive).

And the GI50 (HCC 2998)?
Its GI50 is 25.3 µM (inactive).

What about the GI50 (HCT-116) of the same compound?
The GI50 was 24.2 µM (inactive).

And the GI50 (HCT-15)?
The GI50 was 28.5 µM.

And the GI50 (HL-60)?
Its GI50 is 19.5 µM (inactive).

What about the GI50 (HOP-62) of the same compound?
The GI50 was 30.8 µM (inactive).

And the GI50 (HOP-92)?
The GI50 was 17.7 µM (inactive).

What about the GI50 (HT-29) of the same compound?
The GI50 was 28.6 µM (inactive).

And the GI50 (Hs-578T)?
Its GI50 is 15.7 µM (inactive).

What about the GI50 (IGROV-1) of the same compound?
The GI50 was 20.8 µM (inactive).

What about the GI50 (K562) of the same compound?
The GI50 was 38.3 µM (inactive).

And the GI50 (KM12)?
Its GI50 is 26.4 µM (inactive).

What about the GI50 (LOX IMVI) of the same compound?
Its GI50 is 21 µM (inactive).

What about the GI50 (M14) of the same compound?
Its GI50 is 19.8 µM (inactive).

And the GI50 (MCF7)?
The GI50 was 35.7 µM (inactive).

And the GI50 (MDA-MB-231)?
The GI50 was 31.8 µM (inactive).

What about the GI50 (MDA-MB-435) of the same compound?
Its GI50 is 31.6 µM (inactive).

What about the GI50 (MDA-N) of the same compound?
Its GI50 is 29.2 µM (inactive).

What about the GI50 (MOLT-4) of the same compound?
The GI50 was 7.57 µM (inactive).

What about the GI50 (Malme-3M) of the same compound?
Its GI50 is 30.4 µM (inactive).

And the GI50 (NCI-H23)?
Its GI50 is 24.6 µM (inactive).

What about the GI50 (NCI-H460) of the same compound?
Its GI50 is 20.7 µM (inactive).

What about the GI50 (NCI-H522) of the same compound?
The GI50 was 24.6 µM (inactive).

And the GI50 (NCI/ADR-RES)?
Its GI50 is 34 µM (inactive).

What about the GI50 (OVCAR-3) of the same compound?
The GI50 was 17.5 µM (inactive).

What about the GI50 (OVCAR-4) of the same compound?
Its GI50 is 46.1 µM (inactive).

What about the GI50 (OVCAR-5) of the same compound?
Its GI50 is 24.6 µM (inactive).

And the GI50 (OVCAR-8)?
The GI50 was 24.9 µM (inactive).

And the GI50 (PC-3)?
The GI50 was 23.8 µM (inactive).

And the GI50 (RPMI-8226)?
The GI50 was 32.2 µM (inactive).

And the GI50 (RXF 393)?
The GI50 was 24.9 µM (inactive).

What about the GI50 (SF-268) of the same compound?
The GI50 was 21.8 µM (inactive).

What about the GI50 (SF-295) of the same compound?
The GI50 was 20.9 µM (inactive).

What about the GI50 (SK-MEL-28) of the same compound?
The GI50 was 26.5 µM (inactive).

What about the GI50 (SK-MEL-2) of the same compound?
The GI50 was 25.3 µM (inactive).

What about the GI50 (SK-MEL-5) of the same compound?
Its GI50 is 17.5 µM (inactive).

What about the GI50 (SK-OV-3) of the same compound?
The GI50 was 41 µM (inactive).

What about the GI50 (SN12C) of the same compound?
The GI50 was 29.6 µM (inactive).

What about the GI50 (SNB-19) of the same compound?
The GI50 was 31.4 µM (inactive).

What about the GI50 (SNB-75) of the same compound?
Its GI50 is 18.2 µM (inactive).

What about the GI50 (SR) of the same compound?
The GI50 was 6.67 µM (inactive).

What about the GI50 (SW-620) of the same compound?
Its GI50 is 31.6 µM (inactive).

And the GI50 (T47D)?
The GI50 was 48.8 µM (inactive).

What about the GI50 (TK-10) of the same compound?
The GI50 was 28.1 µM (inactive).

What about the GI50 (U-251) of the same compound?
Its GI50 is 30.1 µM (inactive).

And the GI50 (UACC-257)?
Its GI50 is 33 µM (inactive).

And the GI50 (UACC-62)?
Its GI50 is 14 µM (inactive).

And the GI50 (UO-31)?
The GI50 was 19.7 µM (inactive).

How did the GI50 (786-0) turn out when CN(C)c1ccc(/C=C/c2ccnc3ccc4ccccc4c23)cc1 was run?
The GI50 was 39.5 µM (inactive).

And the GI50 (A498)?
Its GI50 is 24.8 µM (inactive).

What about the GI50 (A549) of the same compound?
Its GI50 is 35.7 µM (inactive).

What about the GI50 (ACHN) of the same compound?
Its GI50 is 22.8 µM (inactive).

What about the GI50 (BT-549) of the same compound?
Its GI50 is 37.5 µM (inactive).

What about the GI50 (CAKI-1) of the same compound?
Its GI50 is 38.4 µM (inactive).

And the GI50 (CCRF-CEM)?
The GI50 was > 100 µM (inactive).

What about the GI50 (COLO 205) of the same compound?
The GI50 was 53.1 µM (inactive).

And the GI50 (DU-145)?
The GI50 was 44.1 µM (inactive).

And the GI50 (HCT-116)?
Its GI50 is 36.5 µM (inactive).

What about the GI50 (HCT-15) of the same compound?
The GI50 was 45.9 µM.

And the GI50 (HL-60)?
Its GI50 is > 100 µM (inactive).

What about the GI50 (HOP-62) of the same compound?
Its GI50 is 33.4 µM (inactive).

And the GI50 (HOP-92)?
Its GI50 is 73.1 µM (inactive).

What about the GI50 (HT-29) of the same compound?
Its GI50 is 43.5 µM (inactive).

What about the GI50 (Hs-578T) of the same compound?
The GI50 was 36.6 µM (inactive).

What about the GI50 (IGROV-1) of the same compound?
Its GI50 is 12.7 µM (inactive).

What about the GI50 (K562) of the same compound?
Its GI50 is 53 µM (inactive).

And the GI50 (KM12)?
The GI50 was 33.3 µM (inactive).

And the GI50 (LOX IMVI)?
The GI50 was 43.9 µM (inactive).

And the GI50 (M14)?
Its GI50 is 81.3 µM (inactive).

What about the GI50 (MCF7) of the same compound?
The GI50 was 0.0873 µM (active).

What about the GI50 (MDA-MB-231) of the same compound?
The GI50 was 34.5 µM (inactive).

And the GI50 (MDA-MB-435)?
Its GI50 is 24.2 µM (inactive).

What about the GI50 (MDA-N) of the same compound?
The GI50 was 16.3 µM (inactive).

What about the GI50 (MOLT-4) of the same compound?
Its GI50 is > 100 µM (inactive).

What about the GI50 (Malme-3M) of the same compound?
The GI50 was 25.3 µM (inactive).

What about the GI50 (NCI-H23) of the same compound?
The GI50 was 52.4 µM (inactive).

And the GI50 (NCI-H460)?
Its GI50 is 29.6 µM (inactive).

What about the GI50 (NCI-H522) of the same compound?
The GI50 was 17.3 µM (inactive).

What about the GI50 (NCI/ADR-RES) of the same compound?
The GI50 was 43.3 µM (inactive).

And the GI50 (OVCAR-3)?
Its GI50 is 51.9 µM (inactive).

And the GI50 (OVCAR-8)?
The GI50 was 33.1 µM (inactive).

What about the GI50 (PC-3) of the same compound?
The GI50 was 92.5 µM (inactive).

What about the GI50 (RPMI-8226) of the same compound?
Its GI50 is 79.4 µM (inactive).

What about the GI50 (RXF 393) of the same compound?
The GI50 was 17.7 µM (inactive).

And the GI50 (SF-268)?
The GI50 was 39.7 µM (inactive).

And the GI50 (SF-539)?
Its GI50 is 28.4 µM (inactive).

What about the GI50 (SK-MEL-28) of the same compound?
The GI50 was 38.5 µM (inactive).

What about the GI50 (SK-MEL-2) of the same compound?
Its GI50 is 25.6 µM (inactive).

What about the GI50 (SK-MEL-5) of the same compound?
Its GI50 is 71 µM (inactive).

What about the GI50 (SK-OV-3) of the same compound?
The GI50 was 27.9 µM (inactive).

What about the GI50 (SN12C) of the same compound?
Its GI50 is 74.3 µM (inactive).

What about the GI50 (SNB-19) of the same compound?
Its GI50 is 33.9 µM (inactive).

And the GI50 (SNB-75)?
The GI50 was 26.5 µM (inactive).

And the GI50 (SR)?
Its GI50 is 13.2 µM (inactive).

And the GI50 (SW-620)?
Its GI50 is 47 µM (inactive).

And the GI50 (T47D)?
Its GI50 is 16.7 µM (inactive).

And the GI50 (TK-10)?
The GI50 was 19.1 µM (inactive).

And the GI50 (U-251)?
The GI50 was 28.6 µM (inactive).

And the GI50 (UACC-257)?
The GI50 was 89.5 µM (inactive).

And the GI50 (UACC-62)?
The GI50 was 53.1 µM (inactive).

And the GI50 (UO-31)?
Its GI50 is 45.6 µM (inactive).

From ChEMBL document CHEMBL1201862, “PubChem BioAssay data set” (2004)
